The values that follow are results of earlier work, collected in patent US20250268985A1, “BCL2 INHIBITOR AND PEPTIDE COMBINATION THERAPY FOR TREATING PROLIFERATIVE DISEASES” (IMMUNE SYSTEM KEY LTD., priority 2022, published 2025).

As to `CN(C)CC[C@H](CSc1ccccc1)Nc1ccc(S(=O)(=O)NC(=O)c2ccc(N3CCN(Cc4ccccc4-c4ccc(Cl)cc4)CC3)cc2)cc1[N+](=O)[O-]` [ABT-737, 4-{4-[(4′-Chloro[1,1′-biphenyl]-2-yl)methyl]piperazin-1-yl}-N-(4-{[(2R)-4-(dimethylamino)-1-(phenylsulfanyl)butan-2-yl]ami-no}-3-nitrobenzene-1-sulfonyl)benzamide], the “bioavailability after oral administration” value was “not bioavailable”.
